Target: Factor D (Homo sapiens (Human), UniProt P00746)
Assay: Factor D esterolytic assay
Format: biochemical
Conditions: Z-Lys-SBzl substrate, 100 mM HEPES, 500 mM NaCl, pH 7.5, 10% DMSO; tested a minimum of three times; read-out: Measured Ki (IC50) Value for Compounds: IC50
Summary of the method: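 Chromogenic thioesterase read-out: Z-Lys-SBzl (1.29 mM) hydrolysis by human Factor D, thiol detected with DTNB at 405 nm (690 nm background subtracted) for 600 s. Run in 100 mM HEPES, 500 mM NaCl, pH 7.5, 10% DMSO, substrate added immediately or after room-temperature preincubation. IC50 from percent inhibition versus enzyme alone, n≥3.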

Factor D, sequence (P00746 26-253): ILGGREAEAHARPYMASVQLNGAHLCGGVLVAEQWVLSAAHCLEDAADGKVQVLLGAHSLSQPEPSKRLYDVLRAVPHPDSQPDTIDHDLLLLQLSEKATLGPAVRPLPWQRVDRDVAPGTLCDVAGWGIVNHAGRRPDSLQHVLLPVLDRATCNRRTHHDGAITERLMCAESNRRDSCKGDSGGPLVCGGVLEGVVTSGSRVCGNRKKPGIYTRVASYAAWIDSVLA

SMILES: COc1ccc(CC(=O)O)c(OCc2coc3ccc(-c4cccc(CN)c4F)cc23)c1 [Compound 6e, 2-(2-((5-(3-(aminomethyl)-2-fluorophenyl)benzofuran-3-yl)methoxy)-4-methoxyphenyl)acetic acid]
- IC50: < 1000 nM

From patent US20250186391A1, “ORAL COMPLEMENT FACTOR D INHIBITORS” (BioCryst Pharmaceuticals, Inc., priority 2019, published 2025)
